# US9975879B2, “Beta lactams as modulators of glutamate uptake and methods for use thereof” (Temple University of the Commonwealth System of Higher …, priority 2013, dated 2018)
# Like-named read-outs stand apart in the source and are kept apart here.
# Columns and labels:
# [1] = test system: GLT-1; conditions: 50 mg/kg daily IP, last 6 days of extinction training; cocaine self-administering rats; nucleus accumbens core, normalized to calnexin; FIG. 1
# [2] = Nakagura et al. (2005); cited from earlier work
# [3] = test system: GLT-1; conditions: cited from earlier work; for expression of GLT-1: SOD1 mouse model of ALS
# [4] = test system: amyotrophic lateral sclerosis; conditions: 50 mg daily; after 15 months of treatment; cited from earlier work
# [5] = test system: planarian; conditions: planarian model; Rawls et al., 2008; cited from earlier work
# [6] = test system: GLT-1; conditions: Rothstein et al., 2005; Lee et al., 2008; cited from earlier work
# [7] = rats; Sari et al., 2009; Knackstead et al., 2010; cited from earlier work
# [8] = cited from earlier work
# [9] = test system: cysteine-glutamate exchanger; conditions: decreased by repeated cocaine administration; cited from earlier work
# [10] = test system: GLT-1; conditions: decreased by repeated cocaine administration; cited from earlier work
structure (smiles),measurement,setting,value
C[C@@H](O)[C@H]1C(=O)N[C@@H]1[C@@H](C)C(=O)N1CCN(C)CC1 [MC-100093],GLT-1 expression,[1],restored GLT-1 expression levels to normal
CC1CC=NN1C(=O)c1cccnc1 (stereo not shown) [MS-153],conditioned place preference induced by cocaine,[2],inhibited the conditioned place preference induced by cocaine
COc1ccc2c(c1)[nH]c1c(C)nccc12 [Harmine],expression of GLT-1,[3],increases GLT-1 expression
Nc1nc2ccc(OC(F)(F)F)cc2s1 [Riluzole],increase in life expectancy,[4],2-3 months
CO/N=C(\C(=O)N[C@@H]1C(=O)N2C(C(=O)O)=C(CSc3nc(=O)c(=O)[nH]n3C)CS[C@H]12)c1csc(N)n1 [ceftriaxone],abstinence withdrawal from cocaine,[5],inhibits abstinence withdrawal from cocaine
same,GLT-1 expression,[6],stimulator of GLT-1 expression
same,relapse to cocaine seeking,[7],prevents relapse to cocaine seeking
same,expression of GLT-1,[3],increases the expression of GLT-1
same,mean survival time,[3]; SOD1 mouse,increases the mean survival time
same,"free, unbound cerebrospinal fluid/plasma ratio based on Cmax","[8]; Chadwick et al., 1983",2-13%
same,"free, unbound cerebrospinal fluid/plasma ratio based on AUCs","[8]; Lutsar and Friedland, 2000",1%
same,cysteine-glutamate exchanger levels,[9],restores
same,GLT-1 levels,[10],restores
